ChEMBL document CHEMBL2016501, “Design, synthesis, and biological activity of novel 1,4-disubstituted piperidine/piperazine derivatives as CCR5 antagonist-based HIV-1 entry inhibitors” (Bioorg Med Chem Lett, 2012)

Columns and labels:
[1] = test system: Human immunodeficiency virus 1; experiment: Antiviral against R5 tropic HIV1 Bal infected in human CEMx174 5.25M7 cells assessed as inhibition of viral replication; assay type: functional, organism-based; details: Human immunodeficiency virus 1, Bal
[2] = Cytotoxicity against human CEMx174 5.25M7; details: CEMx174 5.25M7 cells
[3] = Selectivity ratio of CC50 for human CEMx174 5.25M7 cells to IC50 for HIV1 Bal infected in CEMx174 5.25M7 cells; assay type: ADME, cell-based; details: read-out: Ratio CC50/IC50
[4] = Solubility of the compound in 10 mM phosphate sodium buffer at pH 7.4 at 25 degC; assay type: physicochemical
[5] = test system: Human immunodeficiency virus 1; experiment: Antiviral activity against HIV1; assay type: functional, organism-based
[6] = Terminal half life in Sprague-Dawley rat at 1 mg/kg, iv; assay type: ADME, organism-based; set-up: dose 1 mg/kg, route intravenous; details: in vivo, read-out: beta t1/2 (converted)
[7] = Terminal half life in Sprague-Dawley rat at 5 mg/kg, po; assay type: ADME, organism-based; set-up: dose 5 mg/kg, route oral; details: in vivo, read-out: beta t1/2 (converted)
[8] = AUC (0 to 12 hrs) in Sprague-Dawley rat at 1 mg/kg, iv; assay type: ADME, organism-based; set-up: time < 12 hr, dose 1 mg/kg, route intravenous; details: plasma
[9] = AUC (0 to 12 hrs) in Sprague-Dawley rat at 5 mg/kg, po; assay type: ADME, organism-based; set-up: time < 12 hr, dose 5 mg/kg, route oral; details: plasma
[10] = Oral bioavailability in Sprague-Dawley rat at 5 mg/kg; assay type: ADME, organism-based; details: in vivo
[11] = target: Voltage-gated inwardly rectifying potassium channel KCNH2 (Homo sapiens, UniProt Q12809); experiment: Inhibition of human Erg expressed in HEK293 cells by whole cell patch clamp assay; assay type: cell-based
hERG = experiment: Selectivity ratio of IC50 for human Erg to IC50 for HIV1 Bal infected in human CEMx174 5.25 cells; assay type: ADME, cell-based; details: HIV1 Bal infected CEMx174 5.25 cells, read-out: Ratio IC50

Sequence of Voltage-gated inwardly rectifying potassium channel KCNH2 (Q12809 whole entry): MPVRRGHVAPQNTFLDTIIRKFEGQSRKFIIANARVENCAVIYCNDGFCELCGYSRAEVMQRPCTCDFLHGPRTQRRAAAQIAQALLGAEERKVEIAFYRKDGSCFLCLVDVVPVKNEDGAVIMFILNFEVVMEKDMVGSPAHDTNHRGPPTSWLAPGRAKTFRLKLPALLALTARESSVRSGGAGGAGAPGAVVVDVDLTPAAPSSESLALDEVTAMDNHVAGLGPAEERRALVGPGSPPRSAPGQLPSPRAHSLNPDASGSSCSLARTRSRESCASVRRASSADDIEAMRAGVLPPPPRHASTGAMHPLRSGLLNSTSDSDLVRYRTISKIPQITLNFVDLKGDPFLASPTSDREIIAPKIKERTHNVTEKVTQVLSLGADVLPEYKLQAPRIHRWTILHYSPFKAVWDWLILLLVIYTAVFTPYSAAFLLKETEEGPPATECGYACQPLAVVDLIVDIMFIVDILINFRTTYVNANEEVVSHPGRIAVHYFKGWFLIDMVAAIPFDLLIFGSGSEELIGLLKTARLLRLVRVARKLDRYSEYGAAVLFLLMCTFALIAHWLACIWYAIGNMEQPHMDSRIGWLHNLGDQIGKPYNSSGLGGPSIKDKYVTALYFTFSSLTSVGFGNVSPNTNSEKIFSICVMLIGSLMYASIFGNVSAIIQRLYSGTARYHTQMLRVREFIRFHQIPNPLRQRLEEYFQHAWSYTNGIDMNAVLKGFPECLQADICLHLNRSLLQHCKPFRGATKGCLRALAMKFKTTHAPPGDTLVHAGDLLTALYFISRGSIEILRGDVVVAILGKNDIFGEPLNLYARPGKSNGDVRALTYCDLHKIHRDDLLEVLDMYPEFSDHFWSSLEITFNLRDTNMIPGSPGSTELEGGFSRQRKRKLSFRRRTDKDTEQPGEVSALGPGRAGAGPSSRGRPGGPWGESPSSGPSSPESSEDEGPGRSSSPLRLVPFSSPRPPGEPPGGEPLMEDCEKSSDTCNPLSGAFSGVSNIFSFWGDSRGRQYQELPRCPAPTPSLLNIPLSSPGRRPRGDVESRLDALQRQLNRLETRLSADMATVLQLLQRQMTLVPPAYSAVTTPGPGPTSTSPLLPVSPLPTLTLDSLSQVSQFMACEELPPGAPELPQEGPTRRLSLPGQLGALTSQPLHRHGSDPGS

| IC50 [1] [nM] | Compound | CC50 [2] [nM] | selectivity ratio [3] | further results |
| --- | --- | --- | --- | --- |
| 11.6 | CC(=O)N1CCC(C(=O)N(CCCN2CCN(Cc3cnc(Cl)s3)CC2)c2ccc(C)c(Cl)c2)CC1 | > 52400 | > 4510 | – |
| 10.2 | CC(=O)N1CCC(C(=O)N(CCCN2CCC(CNc3ncccn3)CC2)c2ccc(C)c(Cl)c2)CC1 | > 55100 | > 5330 | – |
| 56.3 | CC(=O)N1CCC(C(=O)N(CCCN2CCN(c3ccccn3)CC2)c2ccc(C)c(Cl)c2)CC1 | > 58300 | > 1040 | – |
| 20.3 | CC(=O)N1CCC(C(=O)N(CCCN2CCC(CNC(=O)c3cnccn3)CC2)c2ccc(C)c(Cl)c2)CC1 | > 52400 | > 2580 | – |
| 1830 | CC(=O)N1CCC(C(=O)N(CCCN2CCC(CNc3cc(C)ccn3)CC2)c2ccc(C)c(Cl)c2)CC1 | 17900 | 10 | – |
| 147 | CC(=O)N1CCC(C(=O)N(CCCN2CCN(C(=O)c3ccccc3)CC2)c2ccc(C)c(Cl)c2)CC1 | 97800 | 663 | – |

The remaining lines, values behind:

| Compound | IC50 [1] [nM] | CC50 [2] [nM] | selectivity ratio [3] | further results |
| --- | --- | --- | --- | --- |
| CC(=O)N1CCC(C(=O)N(CCCN2CCN(Cc3cccnc3)CC2)c2ccc(C)c(Cl)c2)CC1 | 32.7 | > 56700 | > 1740 | – |
| CC(=O)N1CCC(C(=O)N(CCCN2CCC(Oc3ccccc3)CC2)c2ccc(C)c(Cl)c2)CC1 | 52.3 | > 56600 | > 1080 | – |
| CCN(Cc1ccccc1)C(=O)C1CCN(CCCN(C(=O)C2CCN(C(C)=O)CC2)c2ccc(C)c(Cl)c2)CC1 | 59.9 | 83800 | 1400 | – |
| CC(=O)N1CCC(C(=O)N(CCCN2CCN(Cc3ccc(Cl)cc3)CC2)c2ccc(C)c(Cl)c2)CC1 | 6.56 | 37600 | 5730 | – |
| CCN(C(=O)Cc1ccccc1)C1CCN(CCCN(C(=O)C2CCN(C(C)=O)CC2)c2ccc(C)c(Cl)c2)CC1.Cl | 5.23 | 36200 | 6920 | solubility [4]: < 2000 µg/mL; EC50 [5]: 2.5 nM |
| CC(=O)N1CCC(C(=O)N(CCCN2CCC(CNC(=O)c3ccsc3)CC2)c2ccc(C)c(Cl)c2)CC1 | 87.5 | > 51900 | > 593 | – |
| CC(=O)N1CCC(C(=O)N(CCCN2CCN(Cc3ccncc3)CC2)c2ccc(C)c(Cl)c2)CC1 | 9.07 | > 56700 | > 6150 | – |
| CC(=O)N1CCC(C(=O)N(CCCN2CC3CN(C(=O)c4c(C)ncnc4C)CC3C2)c2ccc(C)c(Cl)c2)CC1 (configuration not stated) | – | – | – | EC50 [5]: 2.7 nM |
| CC(=O)N1CCC(C(=O)N(CCCN2CCN(Cc3ccccc3)CC2)c2ccc(C)c(Cl)c2)CC1 | 14.9 | 101000 | 6800 | – |
| CC(=O)N1CCC(C(=O)N(CCCN2CCN(Cc3ccc(F)cc3)CC2)c2ccc(C)c(Cl)c2)CC1.Cl | 6.17 | > 100000 | > 16200 | half-life [6]: 0.59 h; half-life [7]: 0.76 h; AUC(0-t) at 12 h [8]: 209 ng·h/mL; AUC(0-t) at 12 h [9]: 587 ng·h/mL; bioavailability [10]: 56%; IC50 [11]: 1820 nM; selectivity ratio (hERG): 295; solubility [4]: 25000 µg/mL |
| CC(=O)N1CCC(C(=O)N(CCCN2CCN(Cc3ccc(C#N)cc3)CC2)c2ccc(C)c(Cl)c2)CC1 | 9.01 | > 100000 | > 11100 | – |
| CC(=O)N1CCC(C(=O)N(CCCN2CCN(Cc3ccc(Cl)nc3)CC2)c2ccc(C)c(Cl)c2)CC1 | 3.63 | > 53100 | > 14500 | – |
| CC(=O)N1CCC(C(=O)N(CCCN2CCN(Cc3ccc(S(C)(=O)=O)cc3)CC2)c2ccc(C)c(Cl)c2)CC1 | 3.99 | > 49300 | > 12100 | – |
| CC(=O)N1CCC(C(=O)N(CCCN2CCN(Cc3ccc(C(F)(F)F)cc3)CC2)c2ccc(C)c(Cl)c2)CC1 | 1.85 | 30500 | 16500 | – |
| CC(=O)N1CCC(C(=O)N(CCCN2CCC(Cc3ccc(C(N)=O)cc3)CC2)c2ccc(C)c(Cl)c2)CC1.Cl | 2.48 | > 100000 | > 40300 | half-life [6]: 2.25 h; half-life [7]: 4.25 h; AUC(0-t) at 12 h [8]: 328 ng·h/mL; AUC(0-t) at 12 h [9]: 22.7 ng·h/mL; bioavailability [10]: 1.4%; solubility [4]: 2000 µg/mL |
